The assay deals with S. aureus. Description: LIVE/DEAD assay of bacterial membrane integrity. As to conditions: SYTO 9 / propidium iodide stain. In kind it is cell-based, Staphylococcus aureus. The text has this: Assessing the antibacterial activity of GL13K-loaded MSNs against Staphylococcus aureus (USA300, MRSA strain). Overnight culture of S. aureus, USA300 prepared in tryptic soy broth (TSB, DF0370-17-3, Fisher Scientific) were used for assessing the antibacterial activity of AMP-loaded MSNs. USA300 is one of the primary causatives of implant associated infection and implant failure. The optical density of the overnight culture was adjusted to 0.05 and treated with different concentrations of AMP-loaded MSN and AMP alone and MSN (without AMP) and PBS (vehicle control) was used as positive and negative controls. The bacteria was cultured for 24 h under different conditions and metabolic activity tested using BacTiter-Glo™ microbial cell viability assay. The assay was performed using manufacturer's instruction and metabolic activity was measured by luminescence which was measured using microplate reader (Synergy HT, Biotek). […] FIGS. 7A-7C show metabolic activity of USA300 cultured in presence of AMP-loaded MSNs, MSN alone and AMP added directly to the bacterial suspension. Values on x-axis correspond to the loaded AMP concentration.
Overnight culture of S. aureus was treated the same was using method discussed for FIGS. 7A-7C. A LIVE/DEAD assay was performed to visualize cell colonization of surfaces and membrane integrity of all experimental groups. […]

Where no end group is shown, it is not given here. [ ]: non-standard residue; d: D form.

Take “D-GL13K (G[dK][dI][dI][dK][dL][dK][dA][dS][dL][dK][dL][dL]) [AMP]”: the “membrane-compromised bacteria (antibacterial capability)” value was “significant membrane-compromised bacteria”.

The record behind these values is patent US20220105234A1, “ADHESIVE FOR OSSEOINTEGRATED PERCUTANEOUS DEVICES” (Regents of the University of Minnesota, priority 2020, published 2022).
